Results: ChEMBL document CHEMBL3997807, “Isatin-β-thiocarbohydrazones: Microwave-assisted synthesis, antitumor activity and structure-activity relationship” (Eur J Med Chem, 2017)

Assays:
[1] = system: COS-7; experiment: Growth inhibition of African green monkey COS7 cells by MTT assay; assay type: functional, cell-based; details: Chlorocebus aethiops
[2] = system: HeLa; experiment: Growth inhibition of human HeLa cells by MTT assay; assay type: functional, cell-based
[3] = system: Ehrlich; experiment: Antitumor activity against mouse EAC cells implanted in Swiss albino mouse assessed as hemoglobin count in blood at 0.5 mg for 9 days (reference value: 8.15 g/dL); assay type: functional
[4] = system: Ehrlich; experiment: Antitumor activity against mouse EAC cells implanted in Swiss albino mouse assessed as viable tumor cell count in ascitic fluid at 0.5 mg for 9 days (reference value: 83.2 10^6/100uL); assay type: functional
[5] = system: Ehrlich; experiment: Antitumor activity against mouse EAC cells implanted in Swiss albino mouse assessed as WBC count in blood at 0.5 mg for 9 days (reference value: 23.96 10^3/mm3); assay type: functional
[6] = system: Ehrlich; experiment: Antitumor activity against mouse EAC cells implanted in Swiss albino mouse assessed as RBC count in blood at 0.5 mg for 9 days (reference value: 3.69 10^6/mm3); assay type: functional
[7] = system: Ehrlich; experiment: Antitumor activity against mouse EAC cells implanted in Swiss albino mouse assessed as increase in mean life span at 0.5 mg for 9 days relative to control; assay type: functional
[8] = system: Ehrlich; experiment: Antitumor activity against mouse EAC cells implanted in Swiss albino mouse assessed as tumor volume in ascitic fluid at 0.5 mg for 9 days (reference value: 9.85 mL); assay type: functional

SMILES	IC50 [1] [µM]	IC50 [2] [µM]	Activity [3] [g/dL]	Activity [4] [×10⁶ /100microL]	Activity [5] [×10³ /mm3]	Activity [6] [×10⁶ /mm3]	ILS [7] [%]	Activity [8] [mL]
COc1ccc(/C=N/NC(=S)N/N=C2\C(=O)Nc3ccc(C)cc32)c(OC)c1	> 50	> 50						
O=C1Nc2ccc(Br)cc2/C1=N/NC(=S)N/N=C/c1c(F)cccc1Cl	2.56	1.61	9.96	57.5	13.05	4.09	72.4	6.7
COc1ccc(/C=N/NC(=S)N/N=C2\C(=O)Nc3ccc(Br)cc32)cc1O	3.09	2.22	9.11	66.78	19.48	3.86	24.1	7.8
Cc1ccc2c(c1)/C(=N/NC(=S)N/N=C/c1ccc(Br)cc1)C(=O)N2	> 50	> 50						
Cc1ccc2c(c1)/C(=N/NC(=S)N/N=C/c1c(F)cccc1Cl)C(=O)N2	2.19	1.51	10.09	51.52	12.26	4.19	72.4	6.2
COc1ccc(/C=N/NC(=S)N/N=C2\C(=O)Nc3ccc(Br)cc32)c(OC)c1	> 50	> 50						
COc1ccc(/C=N/NC(=S)N/N=C2\C(=O)Nc3ccc(C)cc32)cc1O	3.19	2.73	11.15	38.75	9.23	4.46	110.9	3.26
O=C1Nc2ccc(Br)cc2/C1=N/NC(=S)N/N=C/c1ccccc1Br	> 50	> 50						
O=C1Nc2ccc(Br)cc2/C1=N/NC(=S)N/N=C/c1ccc(-c2ccccc2)cc1	> 50	3.25						
Cc1ccc2c(c1)/C(=N/NC(=S)N/N=C/c1cc3ccccc3c3ccccc13)C(=O)N2	> 50	> 50						
O=C1Nc2ccc(Br)cc2/C1=N/NC(=S)N/N=C/c1ccc(Br)cc1	5.18	4.68						
Cc1ccc(O)c(/C=N/NC(=S)N/N=C2\C(=O)Nc3ccc(Br)cc32)c1	> 50	> 50						
Cc1ccc2c(c1)/C(=N/NC(=S)N/N=C/c1c(Cl)cccc1Cl)C(=O)N2	3.87	1.79						
Cc1ccc2c(c1)/C(=N/NC(=S)N/N=C/c1ccc3ccccc3c1)C(=O)N2	> 50	> 50						
O=C1Nc2ccc(Br)cc2/C1=N/NC(=S)N/N=C/c1ccc2ccccc2c1	> 50	> 50						
Cc1ccc2c(c1)/C(=N/NC(=S)N/N=C/c1ccccn1)C(=O)N2	2.12	3.15	12.93	24.22	7.89	5.28	189.6	2.52
O=C1Nc2ccc(Br)cc2/C1=N/NC(=S)N/N=C/c1c(Cl)cccc1Cl	6.73	3.53						
Cc1ccc2c(c1)/C(=N/NC(=S)N/N=C/c1ccccc1Br)C(=O)N2	> 50	> 50						
Cc1ccc(O)c(/C=N/NC(=S)N/N=C2\C(=O)Nc3ccc(C)cc32)c1	> 50	> 50						
O=C1Nc2ccc(Br)cc2/C1=N/NC(=S)N/N=C/c1cc2ccccc2c2ccccc12	> 50	> 50						
Cc1ccc2c(c1)/C(=N/NC(=S)N/N=C/c1ccc(-c3ccccc3)cc1)C(=O)N2	> 50	> 50						
COc1cccc2c1C(=O)c1c(O)c3c(c(O)c1C2=O)C[C@@](O)(C(=O)CO)C[C@@H]3O[C@H]1C[C@H](N)[C@H](O)[C@H](C)O1 [DOXORUBICIN]	3.04	2.05						
O=c1[nH]cc(F)c(=O)[nH]1 [FLUOROURACIL]			12.96	20.17	8.86	5.21	237.9	1.6
